This passage reports Ki results from ChEMBL document CHEMBL1137043, “Development of a polyvalent assay system for lead identification” (Bioorg Med Chem Lett, 2004).

For the experiment, the target named is T1, Tyrosine-protein phosphatase non-receptor type 1 (Homo sapiens, UniProt P18031).
T1 sequence (P18031 whole entry): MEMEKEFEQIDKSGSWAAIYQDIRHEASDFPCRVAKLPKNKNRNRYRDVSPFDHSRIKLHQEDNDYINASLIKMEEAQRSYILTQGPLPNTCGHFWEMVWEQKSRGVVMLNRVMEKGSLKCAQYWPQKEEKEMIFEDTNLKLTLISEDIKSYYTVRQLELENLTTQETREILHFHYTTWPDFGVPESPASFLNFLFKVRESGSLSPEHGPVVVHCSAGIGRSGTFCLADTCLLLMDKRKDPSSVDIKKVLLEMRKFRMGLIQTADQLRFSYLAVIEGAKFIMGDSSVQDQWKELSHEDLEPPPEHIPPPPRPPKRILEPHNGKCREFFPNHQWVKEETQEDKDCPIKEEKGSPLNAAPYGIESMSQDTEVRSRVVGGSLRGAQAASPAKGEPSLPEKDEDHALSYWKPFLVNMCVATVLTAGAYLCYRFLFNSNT
The experiment is described as follows: In vitro inhibitory concentration against Protein-tyrosine phosphatase 1B hydrolysis of p-nitrophenol phosphate.

Molecules are shown by their SMILES. *1 amine or outer side, *2 acyl side, *3 side chain or, on linkers, in order; H or OH if unused. Where a SMILES comes first, the peptide text is derived from it. [ ]: non-standard residue; d: D form. X1 = O=C(O)COc1ccc(C[C@H](N[*:1])C(=O)[*:2])cc1C(=O)O

Take `CC[C@@H](C)[C@H](NC(=O)C(Cc1ccc(OCC(=O)O)c(C(=O)O)c1)NC(=O)[C@H](CC(=O)O)NC(C)=O)C(=O)N[C@@H](CCCN=C(N)N)C(N)=O` (stereo partly drawn): affinity was put at a Ki of 11 µM.
For `CCC(C)[C@H](NC(=O)C(Cc1ccc(OCC(=O)O)c(C(=O)O)c1)NC(=O)[C@H](CC(=O)O)NC(C)=O)C(N)=O` (stereo partly drawn), the inhibitory constant (Ki) (commonly the equilibrium dissociation constant of an inhibitor or competing ligand from its target) was 41 µM. This Ki is about 3.7-fold higher than that of the molecule before.
The same measure for `CC[C@H](C)[C@H](NC(=O)[C@H](Cc1ccc(OCC(=O)O)c(C(=O)O)c1)NC(=O)[C@H](CC(=O)O)NC(C)=O)C(=O)N[C@@H](CCCN=C(N)N)C(=O)NCC(=O)NCC(=O)NCC(N)=O` (Ac-D[X1]IRGGG-NH2): 18 µM.
